# Measured values as given in publication PMC5967328, “Salvianolic acids from antithrombotic Traditional Chinese Medicine Danshen are antagonists of human P2Y1 and P2Y12 receptors” (Scientific Reports, 2018).
# Entries after “also recorded” stand apart in the source; their conditions may differ. Where two headings read alike, the source gives them in different places.
# Key:
# [1] = design: method as in PMID 21569331; conditions: rat plasma, cited from earlier work
# P2Y1 receptor [2] = biological target: T1, P2Y1 receptor (Homo sapiens, UniProt P47900); test: [3H]2MeSADP radioligand binding at the P2Y1 receptor (U2OS membranes); design: expressed in transfected cells; host or cells: U2OS cells (membrane preparation); conditions: for IC50: average; for inhibitory effect on [3H]2MeSADP binding to the P2Y1 receptor (initial binding results): in words
# Procedure: (§1) Both P2Y1 and P2Y12 receptors play important roles in platelet aggregation. Therefore, we also tested the potential effects of SAA, SAB and SAC on the P2Y1 receptor. […] SAA and SAC antagonized 2MeSADP-induced accumulation of inositol 1-phosphate (IP-1) (Fig. 2e). KB values calculated by Schild analysis for the P2Y1 receptor were 9.1 ± 1.5 and 15.6 ± 2.0 µM for SAA and SAC, respectively (Fig. 2f). Thus, the Schild analysis of the antagonist potencies of SAA and SAC for Gq-coupled P2Y1 and Gi-coupled P2Y12 receptors was consistent with their binding affinities measured in the radioligand assays.
# (§2) U2Os cells expressing the P2Y1 or P2Y12 receptors were cultured in DMEM supplemented with 10% fetal bovine serum, 100 Units/ml penicillin, 100 µg/ml streptomycin and 2 µmol/ml glutamine. After reaching confluence, cells were detached from plates by scraping into PBS and centrifuged at 250 g for 5 min. The resulting pellets were re-suspended in ice-cold Tris-HCl buffer (50 mM, pH 7.4) and homogenized. After homogenization and suspension, cells were centrifuged at 1000 g for 10 min and the pellet was discarded. The suspension was re-centrifuged at 20,000 g for 60 min at 4 °C. The pellets were re-suspended, split into aliquots and stored at −80 °C. The protein concentration was measured using the Bradford assay. For P2Y1 and P2Y12 receptor binding assays, saturation curves were measured by addition of various concentrations of 50 µl [^3H]2MeSADP (specific activity, 7.5 Ci/mmol; Movarek Biochemicals, Brea, CA) and 100 μl of membrane suspension to a total of 200 μl of total assay volume. Non-specific binding was determined using 10 µM MRS2500 (Tocris; St. Louis, MO) for the P2Y1 receptor and 10 μM SAR216471 (Tocris; St. Louis, MO) for the P2Y12 receptor. For the displacement assay, various concentrations of inhibitors were incubated with [^3H]2MeSADP (1.0 nM for P2Y1; 0.4 nM for P2Y12) and membrane preparations (20 µg/sample) at 25 °C for 60 min. The separation of bound from free radioligand was accomplished by rapid vacuum filtration of the incubation mixture over GF/B filter using a Brandel cell harvester (Brandel Inc., Gaithersburg, MD). Filters were washed two times with 3 ml of ice-cold Tris-HCl buffer, pH 7.5. Radioactivity on the filters was quantified using a Tri-carb Liquid Scintillation Counter (PerkinElmer Life and Analytical Sciences). 2MeSADP was purchased from Sigma (St. Louis, MO). All other materials were from standard commercial sources and of analytical grade. For radioligand binding, calculation of apparent binding affinities, Ki = IC50/(1 + [radioligand]/Kd), was performed using the nonlinear iterative curve-fitting program of Prism (GraphPad Software Inc., San Diego, CA).
# Figure S2. The effects of Tween -20 on the inhibition by SAA (a) and SAC (b) of
# [3H]2MeSADP binding to the human P2Y1 recept or. Data are ex pressed Me an ± SD from
# 2- 3 independent experiments. The average IC50 values of SAA in the absence and
# presence of 0.01% Tween- 20 are 21.2 and 19.3 μM, respectivel y. The IC50 values of
# SAC in the absence and p resence of 0.01% Tween- 20 are 29.4 and 23.7 μM, respectivel y.
# The c ritical micelle concentration (CMC) of Tween -20 is 0.0074%.
# (§3) (1 picture or pasted object on this page, not shown here)
# P2Y12 receptor [3] = biological target: T2, P2Y12 receptor (Homo sapiens, UniProt Q9H244); test: [3H]2MeSADP radioligand binding at the P2Y12 receptor (U2OS membranes); design: expressed in transfected cells; host or cells: U2OS cells (membrane preparation)
# Procedure: The eleven selected components were further examined in radioligand binding and functional assays. We initially tested the eleven compounds by measuring the inhibition of [^3H]2-methylthioadenosine 5′-diphosphate (2MeSADP) binding at the human P2Y12 receptor (Fig. 1b).
# as §2
# P2Y12 receptor [4] = biological target: T2, P2Y12 receptor; test: Antagonism of 2MeSADP-induced inhibition of forskolin-stimulated cAMP accumulation, Schild analysis; format: cell-based; design: expressed in transfected cells; host or cells: U2OS cells
# Procedure: The functional antagonism of these three salvianolic acids against the P2Y12 receptor was measured by their effect on agonist-induced inhibition of forskolin-stimulated cyclic AMP accumulation in P2Y12 receptor-expressing U2OS cells. For example, in a concentration-dependent manner, SAA shifted the agonist response curve to the right without affecting its maximum agonist effect (Fig. 2b). This observation is consistent with competitive antagonism, but allosteric antagonism cannot be excluded. Schild analysis of the antagonism yielded KB values of 24.2 ± 5.9, 33.6 ± 6.4 and 23.7 ± 4.5 µM for SAA, SAB and SAC, respectively (Fig. 2c).
# U2Os cells expressing the P2Y12 receptor were cultured in DMEM medium containing 10% fetal bovine serum, 100 units/ml penicillin, 100 µg/ml streptomycin and 2 µmol/ml glutamine. For the assay of cAMP accumulation, cells were plated in 96-well plates in 100 µl medium overnight. Cells were then treated with assay buffer containing rolipram ([…]) and antagonists for 20 min followed by the addition of agonists and incubate for 10 min. After 10 min incubation with agonist, Forskolin (10 μM) was added to the mixture and the incubation was continued for another 10 min. The reaction was terminated upon removal of the supernatant and addition of 100 µl Tween-20 (0.3%). Intracellular cAMP levels were measured with an ALPHAScreen cAMP assay kit as instructed by the manufacturer (PerkinElmer). Binding and functional parameters were calculated using Prism 7.0 software (GraphPAD, San Diego, CA, USA). Data were expressed as mean ± sem.
# P2Y1 receptor [5] = biological target: T1, P2Y1 receptor; test: Antagonism of 2MeSADP-induced IP-1 accumulation, Schild analysis; format: cell-based; design: expressed in transfected cells; host or cells: U2OS cells
# Procedure: as §1
# Inositol 1-phosphate (IP-1) was measured using the IP-One Tb HTRF kit (Cisbio Bioassays, Bedford, MA) as described previously[60],[61]. Briefly, after overnight growth, U2Os cells expressing the P2Y1 receptor were first treated with an antagonist for 20 min before the treatment with agonist and incubated for another 60 min. IP-1 detection reagents were added as instructed by the manual from the manufacturer. The assay plates were read on a Mithras LB940 reader (Berthold Technologies, Oak Ridge, TN) using a time-resolved fluorescence ratio (665/620 nm).
# α1B adrenergic receptor = biological target: T3, α1B adrenergic receptor (Homo sapiens, UniProt P35368); test: [3H]Prazosin binding assay (PDSP)
# T3 construct: Psychoactive Drug Screening Program (PDSP)
# T3 sequence (P35368 1-520): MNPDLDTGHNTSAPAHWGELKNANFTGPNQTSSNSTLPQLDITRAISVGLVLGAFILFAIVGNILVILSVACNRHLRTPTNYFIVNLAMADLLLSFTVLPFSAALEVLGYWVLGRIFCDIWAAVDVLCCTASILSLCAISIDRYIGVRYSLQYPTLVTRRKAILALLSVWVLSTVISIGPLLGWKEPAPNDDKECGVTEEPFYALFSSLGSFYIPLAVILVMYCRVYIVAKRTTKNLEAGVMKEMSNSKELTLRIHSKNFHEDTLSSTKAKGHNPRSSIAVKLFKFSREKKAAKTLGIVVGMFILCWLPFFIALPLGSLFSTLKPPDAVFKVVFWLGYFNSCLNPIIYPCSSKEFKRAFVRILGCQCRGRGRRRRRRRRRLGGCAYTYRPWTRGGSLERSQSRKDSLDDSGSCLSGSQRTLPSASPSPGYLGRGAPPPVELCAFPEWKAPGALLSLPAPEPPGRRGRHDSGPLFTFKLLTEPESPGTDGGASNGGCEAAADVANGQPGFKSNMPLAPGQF
# From the text: We also tested if SAA, SAB and SAC are promiscuously binding compounds, due to the fact that they all have multiple phenolic groups and are thus potentially PAINS[36]. To find other possible targets of the three compounds, we evaluated their potential binding to 45 diverse receptors, transporters and ion channels (human, unless noted) using radioligand binding assays via the Psychoactive Drug Screening Program (PDSP) (Table S1)[37].
# Figure S3. Binding activit y of SAB (compound 44297) to the α1B adrenergic receptor was measured b y [ 3H]Prazosin binding assays for three repeats (a-c). Prazosin is an inverse agonist of the α1B adrenergic receptor. Th e av erage Ki o f SAB was determined […]
# as §3
# adrenergic α1B receptor = biological target: T4, adrenergic α1B receptor (Homo sapiens, UniProt P35368); test: FLIPR agonist and antagonist assays; format: cell-based
# T4 construct: expressed in transfected cells
# T4 sequence (P35368 1-520): T3 sequence (P35368 1-520)
# Procedure: For agonist assay: cell line expressing target receptor was seeded in a 384-well black-wall, clear-bottom plate about 18 hours prior to the day of experiment and maintained at 37 °C/5% CO2. Then, 20 μl of dye-loading solution was added into the wells and the plates were subsequently placed into a 37 °C incubator for 60 min, followed by a 15 min incubation at room temperature. At last, 10 μl of compounds or control agonist were added into respective wells of the assay plate during reading in FLIPR.
# For antagonist assay: cell line expressing target receptor was seeded in a 384-well black-wall, clear-bottom plate about 18 hours prior to the day of experiment and maintained at 37 °C/5% CO2. Then the dye-loading solution and 10 μl of control antagonist and test samples were added into respectively wells in sequence. The plates were subsequently placed into a 37 °C incubator for 60 min, followed by a 15 min incubation at room temperature. At last, 12.5 μl of control agonist were added into respective wells of the assay plate during reading in FLIPR.
# The fun ctional activit y of SAB on the adrener gi c α1B re ceptor we re tested b y […]
# T1 sequence (P47900 whole entry): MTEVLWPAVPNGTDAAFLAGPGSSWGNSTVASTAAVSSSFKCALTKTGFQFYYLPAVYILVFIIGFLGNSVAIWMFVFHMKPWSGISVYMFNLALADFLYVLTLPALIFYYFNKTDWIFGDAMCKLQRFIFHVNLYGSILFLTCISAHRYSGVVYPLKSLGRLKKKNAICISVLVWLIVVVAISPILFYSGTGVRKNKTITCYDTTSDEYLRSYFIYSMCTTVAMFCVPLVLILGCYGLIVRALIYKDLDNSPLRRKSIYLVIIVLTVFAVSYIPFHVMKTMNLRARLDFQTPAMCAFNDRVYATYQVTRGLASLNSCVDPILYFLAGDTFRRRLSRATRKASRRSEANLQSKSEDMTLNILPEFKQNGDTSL
# T2 sequence (Q9H244 whole entry): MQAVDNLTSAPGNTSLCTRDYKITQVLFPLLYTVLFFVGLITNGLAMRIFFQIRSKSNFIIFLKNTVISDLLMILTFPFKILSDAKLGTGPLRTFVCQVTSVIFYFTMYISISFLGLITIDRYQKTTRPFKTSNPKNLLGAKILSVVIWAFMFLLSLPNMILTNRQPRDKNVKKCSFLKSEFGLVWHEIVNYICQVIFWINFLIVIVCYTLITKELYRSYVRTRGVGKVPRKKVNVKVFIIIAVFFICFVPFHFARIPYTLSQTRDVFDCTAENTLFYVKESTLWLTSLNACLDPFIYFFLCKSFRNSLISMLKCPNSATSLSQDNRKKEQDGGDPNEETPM
compound,measurement,setting,value
"O=C(/C=C/c1ccc(O)c(O)c1/C=C/c1ccc(O)c(O)c1)O[C@H](Cc1ccc(O)c(O)c1)C(=O)O [SAA, salvianolic acid A]",t1/2,"[1]; 100 mg/kg, p.o.",3.28 h
same,Ki,P2Y1 receptor [2],14.7 ± 2.4 µM
same,IC50,"P2Y1 receptor [2]; IC50, inhibition of [3H]2MeSADP binding to human P2Y1 receptor, absence of Tween-20",21.2 µM
same,IC50,"P2Y1 receptor [2]; IC50, inhibition of [3H]2MeSADP binding to human P2Y1 receptor, presence of 0.01% Tween-20",19.3 µM
same,inhibitory effect on [3H]2MeSADP binding to the P2Y1 receptor (initial binding results),P2Y1 receptor [2],substantial inhibitory effect
same,Ki,P2Y12 receptor [3],20.3 ± 1.5 µM
same,inhibition of [3H]2MeSADP binding at the human P2Y12 receptor,P2Y12 receptor [3]; 100 µM compound,significant inhibitory effect
same,Kb,P2Y12 receptor [4],24.2 ± 5.9 µM
same,Kb,P2Y1 receptor [5],9.1 ± 1.5 µM
"O=C(C=Cc1ccc(O)c2c1C(C(=O)OC(Cc1ccc(O)c(O)c1)C(=O)O)C(c1ccc(O)c(O)c1)O2)OC(Cc1ccc(O)c(O)c1)C(=O)O (stereo not shown) [SAB, salvianolic acid B]",Ki,α1B adrenergic receptor,6.26 ± 1.46 µM
same,agonist activity on α1B,adrenergic α1B receptor; FLIPR agonist assay,did not show agonist activity; also recorded: neither agonist nor antagonist
same,antagonist activity on α1B,adrenergic α1B receptor; FLIPR antagonist assay,did not show antagonist activit y; also recorded: neither agonist nor antagonist
same,t1/2,"[1]; 100 mg/kg, i.v.",about 105 min
same,t1/2,"[1]; 500 mg/kg, p.o.",4.13 h
same,inhibitory effect on [3H]2MeSADP binding to the P2Y1 receptor (initial binding results),P2Y1 receptor [2],significantly weaker
same,Ki,P2Y12 receptor [3],36.4 ± 20.3 µM
same,inhibition of [3H]2MeSADP binding at the human P2Y12 receptor,P2Y12 receptor [3]; 100 µM compound,significant inhibitory effect
same,Kb,P2Y12 receptor [4],33.6 ± 6.4 µM
"O=C(/C=C/c1ccc(O)c2oc(-c3ccc(O)c(O)c3)cc12)O[C@H](Cc1ccc(O)c(O)c1)C(=O)O [SAC, salvianolic acid C]",IC50,"P2Y1 receptor [2]; absence of Tween-20, read-out: IC50, inhibition of [3H]2MeSADP binding to human P2Y1 receptor",29.4 µM
same,inhibitory effect on [3H]2MeSADP binding to the P2Y1 receptor (initial binding results),P2Y1 receptor [2],substantial inhibitory effect
same,IC50,"P2Y1 receptor [2]; presence of 0.01% Tween-20, read-out: IC50, inhibition of [3H]2MeSADP binding to human P2Y1 receptor",23.7 µM
same,Ki,"P2Y1 receptor [2]; vs [3H]2MeSADP (1.0 nM), read-out: Ki, P2Y1 receptor binding",23.3 ± 4.5 µM
same,inhibition of [3H]2MeSADP binding at the human P2Y12 receptor,P2Y12 receptor [3]; 100 µM compound,significant inhibitory effect
same,Ki,"P2Y12 receptor [3]; full inhibition curves vs [3H]2MeSADP (0.4 nM), read-out: Ki, P2Y12 receptor binding",15.6 ± 6.5 µM
same,Kb,P2Y12 receptor [4],23.7 ± 4.5 µM
same,Kb,"P2Y1 receptor [5]; U2OS cells expressing P2Y1, IP-1 accumulation, read-out: KB (Schild analysis), P2Y1 receptor",15.6 ± 2 µM
O=C(/C=C/c1ccc(O)c(O)c1)O[C@H](Cc1ccc(O)c(O)c1)C(=O)O [rosmarinic acid],inhibition at 100 µM,P2Y12 receptor [3]; 100 µM compound,31.6 ± 6.2%
O=C(O)Cc1c(/C=C/C(=O)O[C@H](Cc2ccc(O)c(O)c2)C(=O)O)ccc(O)c1O [salvianolic acid D],inhibition of [3H]2MeSADP binding at the human P2Y12 receptor,P2Y12 receptor [3]; 100 µM compound,33.5 ± 8.6%
